What was measured:
[1] = test system: HCT116; assay: Full dose-response, survival of cancer cell line (SRB assay); type: cell-based; settings: Homo sapiens, HCT-116; colon cancer; 48 hours of drug treatment; average of three individual experiments
Text: (§1) Dulbecco's Modified Eagles Medium (DMEM), RPMI 1640 medium and propidium iodide (PI) were purchased from Sigma Aldrich (Darmstadt, Germany). For western blot, the antibodies; c-Myc, p^53, p^21, Bax, Bid, BclxL, GAPDH, caspase-3, caspase-9, p-ATM, p-ATR, p-Chk1, p-Chk2, p-P^53, and p-H2AX along with respective mouse/rabbit secondary antibodies were purchased from Cell Signaling Technology (Danvers, MA, USA). FITC Annexin V Apoptosis kit was purchased from BD Biosciences (New Jersey, USA). All other chemicals and solvents used were of standard analytical grade. The stock solutions of SIMR compounds were made in 100% DMSO and working solutions for treatments never exceeded >1% DMSO. The cell lines were gifted from Radiobiology and Experimental Radio Oncology lab, University Cancer Center, Hamburg University, Hamburg, Germany. F180 and HCT116 cells were cultured in DMEM media while MCF-7 and SKBR3 cells were cultured in RPMI along with 10% FBS and 5% CO2 in a humidified incubator at 37° C. The cells were grown on polystyrene T-75 (75 cm^2) culture flasks and all the experiments were performed at ˜70% cell confluency.
(§2) SRB assay was performed on DU-143 and MCF-7 cells in order to find out the sub-lethal dosage (IC50) of the synthesized compounds based on reported method with minor modifications. Briefly, 1×10^4 cells were seeded in a 96-well plate overnight and were treated with different concentrations of compounds and incubated further for 48 hours. The wells which were devoid of any treatment served as controls. After the treatment time, the plates were incubated with 50% trichloroacetic acid (TCA) at 4° C. for 1 hour. The cells were then washed, dried and exposed to 1% acetic acid for short period. Two hundred microliters of 10 mMtris base solution was then added with 10 min incubation after drying the plates and the OD was read at 492 nm by using a Multiskan™ GO (Thermo Scientific, USA) microplate Spectrophotometer.

[2] = test system: MCF7; assay: as above; type: cell-based; settings: Homo sapiens, breast cancer, 48 hours of drug treatment, average of three individual experiments
Text: as §1, §2

[3] = test system: SKBR3; assay: as above; type: cell-based; settings: Homo sapiens, SK-BR-3; breast cancer; 48 hours of drug treatment; average of three individual experiments
Text: as §1, §2

[4] = test system: MCF-7 cells; assay: Cell cycle analysis (propidium iodide, flow cytometry); type: cell-based; settings: after 16, 24, 48, and 72 hours of treatment
Method: Apoptosis studies: The molecular effect of compound it was evaluated by investigating its apoptotic (FIG. 5) and cell cycle arresting potentials (FIGS. 6A and 6B). Compound it arrests the cells at G0/G1 phase in MCF-7 cells (>15%) with respect to control cells after 16, 24, 48, and 72 hours of treatment.
Cell cycle arresting potentials of compound it were analyzed by an already established protocol with minor modifications. In brief, 3×10^6 cells of MCF-7, SKBR3, and HCT116 were seeded and incubated overnight in a T75 cm^2 flask before treating with IC50 dose of compound it for […]. The cells which were devoid of any treatments served as controls for each group. After respective treatment hours, the cells were washed two times with PBS and fixed with ice cold ethanol (70%) overnight. The cells were then washed two times with cold PBS and 1×10^6 cells were then counted and incubated with 1 ml RNAase (100 μg/mL) for 30 min at 37° C. The cell pellet was further added with 200 μl of propidium iodide (50 μg/mL) and immediately analyzed by a flow cytometer (BD, Accuri C6).

[5] = test system: p21; assay: Western blot, p21 expression; type: cell-based; settings: HCT116 colon cancer cells
Method: (§3) The MCF-7, SKBR3 and HCT116 total cell lysate were prepared after 24 hours of treatment with compound it at IC50 and DIC50 doses by using 1× laemmli buffer. Total protein concentration was then estimated for each sample and 15-30 μg of protein lysate were loaded equally on 12% SDS-PAGE gel in order to detect various proteins expression levels. In short, the membrane was incubated with different primary antibodies (as mentioned in above section) (1:1000) overnight after blocking with 5% non-fat milk solution for 1 hour. The membrane was then re-probed with respective mouse/rabbit secondary antibodies (1:2000) for 1 h, and later developed by enhanced chemiluminescence (ECL) method by using a Chemidoc MP (BioRad, Germany).

[6] = test system: ATR; assay: DNA damage study, ATR phosphorylation (western blot); type: cell-based; settings: also its downstream target p53
Method: However, recruitment of phosphatidylinositol-3-kinase (PI3K) family members to the site of DNA damage is the first step of DNA damage response mechanisms and the phosphorylation of ataxia telangiectasia-mutated (ATM) or ATM-Rad3-related (ATR) kinases often follows. […] Overall, compound it was able to induce DNA damage in an ATR-Chk2 dependent pathway in aggressive breast cancer phenotypes.
as §3

[7] = target: T1, inositol-3-phosphate synthase (Homo sapiens, UniProt Q9NPH2); assay: DARTS proteomic assay; type: binding
T1 construct: HEK293T cells were lysed using M-PER; endogenous in cells; host or cells: HEK293T lysate
Text: (§4) The unique properties of compound it prompted an in-depth analysis to explore its potential novel targets.
(§5) Similarly, deregulated inositol metabolism has been observed in a number of diseases, including cancer, where inositol modulates different critical pathways in disease progression. Moreover, it is expressed consistently in bipolar disorders and Alzheimer's diseases. […] Likewise, the role of glutathione reductase is well known in cancer progression and chemoresistance. The equilibrium between the glutathione disulphide ratio is critical not only in cancer progression but also in increased oxidative stress which can lead to other disorders.
(§6) A DARTS assay was used to assess the binding of compound 1t. HEK293T cells were lysed using M-PER (Thermo Scientific, Inc.) supplemented with protease and phosphatase inhibitors (Lysis buffer). 4.7 mg/mL of protein and TNC buffer (10 mM Tris, 140 mMNaCl, 5 mM CaCl2)) was added, compound it was diluted in DMSO to 3 different concentrations (0.01 μM, 0.1 μM, 1 μM) and incubated for one hour at room temperature. Trypsin (Promega) was added and incubated for 3 hours at 37° C. Thereafter, M-PER lysis buffer was added and the samples were concentrated with Microcon 10K centrifugal filters. The proteins were identified by gel electrophoresis liquid chromatography mass spectroscopy (GelLCMS).

[8] = target: T2, transferrin receptor proteins (Homo sapiens, UniProt P02786); assay: DARTS proteomic assay; type: binding
T2 construct: HEK293T cells were lysed using M-PER; endogenous in cells; host or cells: HEK293T lysate
Text: as §4, §5, §6

[9] = target: T3, glutathione reductase (Homo sapiens, UniProt P00390); assay: DARTS proteomic assay; type: binding; settings: dose-dependent manner, FIG. 12
T3 construct: HEK293T cells were lysed using M-PER; endogenous in cells; host or cells: HEK293T lysate
Method: as §4, §6

T2 sequence (P02786 whole entry): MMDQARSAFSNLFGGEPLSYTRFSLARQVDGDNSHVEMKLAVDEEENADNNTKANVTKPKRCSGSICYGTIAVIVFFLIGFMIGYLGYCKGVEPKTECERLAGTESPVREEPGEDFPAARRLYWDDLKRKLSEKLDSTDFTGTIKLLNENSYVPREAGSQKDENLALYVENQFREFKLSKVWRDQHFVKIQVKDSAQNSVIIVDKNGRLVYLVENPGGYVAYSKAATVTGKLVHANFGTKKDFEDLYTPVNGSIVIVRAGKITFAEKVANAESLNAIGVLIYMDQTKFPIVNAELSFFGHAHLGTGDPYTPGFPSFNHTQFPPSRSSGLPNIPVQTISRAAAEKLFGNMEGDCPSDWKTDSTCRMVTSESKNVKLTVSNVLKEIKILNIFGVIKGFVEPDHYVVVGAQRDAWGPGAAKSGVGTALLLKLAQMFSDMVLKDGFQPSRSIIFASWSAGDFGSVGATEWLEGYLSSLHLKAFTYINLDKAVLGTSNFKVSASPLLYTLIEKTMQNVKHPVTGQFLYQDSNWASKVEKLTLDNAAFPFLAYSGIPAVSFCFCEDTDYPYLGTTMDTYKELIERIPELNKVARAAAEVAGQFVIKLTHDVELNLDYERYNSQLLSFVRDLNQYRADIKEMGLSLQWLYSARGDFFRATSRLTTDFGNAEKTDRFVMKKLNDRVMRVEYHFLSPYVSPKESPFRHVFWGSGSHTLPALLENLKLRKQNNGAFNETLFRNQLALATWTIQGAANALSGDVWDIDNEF
T3 sequence (P00390 44-522): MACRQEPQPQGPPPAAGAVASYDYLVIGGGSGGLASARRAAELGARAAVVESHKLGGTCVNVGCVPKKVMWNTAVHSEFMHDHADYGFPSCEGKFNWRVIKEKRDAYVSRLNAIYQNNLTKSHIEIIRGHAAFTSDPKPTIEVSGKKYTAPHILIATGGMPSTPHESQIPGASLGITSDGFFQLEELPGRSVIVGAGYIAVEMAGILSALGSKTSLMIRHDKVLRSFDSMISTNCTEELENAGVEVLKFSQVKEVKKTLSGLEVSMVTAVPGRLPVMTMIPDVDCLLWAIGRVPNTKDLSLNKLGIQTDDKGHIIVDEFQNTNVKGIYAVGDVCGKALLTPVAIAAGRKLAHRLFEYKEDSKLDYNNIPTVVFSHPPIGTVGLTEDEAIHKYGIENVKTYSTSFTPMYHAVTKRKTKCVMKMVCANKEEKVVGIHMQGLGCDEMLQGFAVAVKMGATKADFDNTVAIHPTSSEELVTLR
T1 sequence (Q9NPH2 whole entry): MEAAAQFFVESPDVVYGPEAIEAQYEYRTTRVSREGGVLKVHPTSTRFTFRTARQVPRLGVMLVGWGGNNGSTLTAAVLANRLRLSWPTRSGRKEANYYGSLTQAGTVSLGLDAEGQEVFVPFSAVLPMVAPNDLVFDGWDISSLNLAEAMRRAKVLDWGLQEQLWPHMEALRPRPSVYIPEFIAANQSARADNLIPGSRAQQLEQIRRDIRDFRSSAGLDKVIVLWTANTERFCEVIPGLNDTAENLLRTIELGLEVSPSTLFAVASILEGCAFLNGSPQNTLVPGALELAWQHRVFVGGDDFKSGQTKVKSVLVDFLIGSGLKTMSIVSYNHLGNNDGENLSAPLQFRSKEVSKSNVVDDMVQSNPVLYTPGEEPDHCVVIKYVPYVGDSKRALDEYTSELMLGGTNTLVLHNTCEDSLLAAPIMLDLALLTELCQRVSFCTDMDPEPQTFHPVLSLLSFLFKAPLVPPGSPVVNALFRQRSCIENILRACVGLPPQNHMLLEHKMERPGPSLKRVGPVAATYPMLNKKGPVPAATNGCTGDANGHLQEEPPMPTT

Affinity to bind inositol-3-phosphate synthase [7]: dose-dependent affinity
Affinity to transferrin receptors [8]: higher affinity
Modulation of glutathione reductase function [9]: modulated the functions
Structure (SMILES): CC1(C)[C@H]2COc3ccc4ccccc4c3[C@H]2N=C2SC(c3ccccc3)=C(c3ccccc3)N21 [Compound 1t]
IC50 [1]: 1500 nM
IC50 [2]: 1910 nM
IC50 [3]: 1900 nM
Cells arrested at G0/G1 phase with respect to control cells [4]: > 15%
Expression of p21 [5]: overexpressed
ATR phosphorylation [6]: phosphorylates ATR
